Drawing on patent US6051712A, “Piperidine derivatives having renin inhibiting activity” (Hoffmann-La Roche Inc., priority 1995, dated 2000), this text covers IC50 for 24 compounds.

Structures can show the parent of a compound that is named as a salt. Where two headings read alike, the source gives them in different places.

This test deals with T1, human renin (Homo sapiens, UniProt P00797).
T1 sequence (P00797 67-406): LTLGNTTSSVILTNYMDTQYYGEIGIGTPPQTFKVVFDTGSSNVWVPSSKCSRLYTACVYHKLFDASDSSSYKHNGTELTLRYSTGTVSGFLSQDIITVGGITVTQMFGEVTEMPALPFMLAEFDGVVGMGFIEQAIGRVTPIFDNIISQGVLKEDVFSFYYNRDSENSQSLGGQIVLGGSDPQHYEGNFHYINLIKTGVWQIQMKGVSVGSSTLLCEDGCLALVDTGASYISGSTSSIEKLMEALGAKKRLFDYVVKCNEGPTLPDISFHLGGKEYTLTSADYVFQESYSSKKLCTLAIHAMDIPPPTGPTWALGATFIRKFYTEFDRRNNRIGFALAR
The experiment in a line: In vitro test with pure human renin (angiotensin I production from human tetradecapeptide renin substrate, measured by RIA). Type of test: biochemical. How it is done: In vitro test with pure human renin
The test is carried out in Eppendorf test tubes. The incubation mixture consists of (1) 100 μl of human renin in buffer A (0.1M sodium phosphate solution, pH 7.4, containing 0.1% bovine serum albumin, 0.1% sodium azide and 1 mM ethylenediaminetetraacetic acid), sufficient for a renin activity of 2-3 ng of angiotensin l/ml/hr.; (2) 145 μl of buffer A: (3) 30 μl of 10 mM human tetradecapeptide renin substrate (hTD) in 10 mM hydrochloric acid: (4) […] of dimethyl sulphoxide with or without inhibitor and (5) 10 μl of a 0.03 molar solution of hydroxyquinoline sulphate in water.
The samples are incubated for three hours at 37° C. and, respectively, 4° C. in triplicate. 2×100 μl samples per test tube are used in order to measure the production of angiotensin I via RIA (standard radioimmunoassay; clinical assay solid phase kit). […] The production of angiotensin I is determined by the difference between the test at 37° C, and that at 4° C.
The following controls are carried out:
(a) Incubation of hTD samples without renin and without inhibitor at 37° C. and 4° C. The difference between these two values gives the base value of the angiotensin I production.
(b) Incubation of hTD samples with renin, but without inhibitor at 37° C. and 4° C. The difference between these values gives the maximum value of the angiotensin I production.
In each sample the base value of the angiotensin I production is subtracted from the angiotensin I production which is determined. The difference between the maximum value and the base value gives the value of the maximum substrate hydrolysis (=100%) by renin.
The IC50 values are determined from a linear regression curve from a logit-log plot.

Where [1] appears, read: pure human renin, pH 7.4, three hours at 37° C. (less 4° C.), human tetradecapeptide substrate, angiotensin I by RIA, read-out: IC50 values (concentration of the inhibitor at which the enzymatic activity is inhibited by 50%).

For `OCCCCO[C@@H]1CNC[C@H](OCc2ccc3ccccc3c2)[C@H]1c1ccc(OCCCOCc2ccccc2)cc1` (racemic) [V, 4-[(3RS,4SR,5SR)-4-[4-(3-benzyloxy-propoxy)-phenyl]-3-(naphthalen-2-ylmethoxy)-piperidin-5-yloxy]-butan-1-ol], the IC50 under setting [1] worked out at 2 nM. On the same count and under the same terms, as for `OCC(O)COCc1ccc2cc(CO[C@H]3CNCC[C@@H]3c3ccc(OCCCOCc4ccccc4)cc3)ccc2c1` (mixture of isomers) [U, a mixture of (3RS,4RS)- and (3SR,4SR)-4-[4-(3-benzyloxy-propoxy)-phenyl]-3-[6-[(RS)-2,3-dihydroxy-propoxymethyl]-naphthalen-2-ylmethoxy]-piperidine], the figure is 24 nM.

`CCN(CC)C[C@@H]1CNC[C@H](OCc2ccc3ccccc3c2)[C@H]1c1ccc(OCCCOCc2ccccc2)cc1` (relative stereo) [JJ]: under setting [1], the IC50 is 2 nM.

For the compound `O=C(OCCOc1ccc([C@H]2CCNC[C@@H]2OCc2ccc3ccccc3c2)cc1)c1cccs1` (racemic) [A, (3RS,4RS)-2-[4-(3-naphthalen-2-ylmethoxy-piperidin-4-yl)-phenoxy]-ethylthiophene-2-carboxylate hydrochloride], under setting [1], the IC50 was determined as 11 nM. Regarding `CN1CCN(CCO[C@@H]2CNC[C@H](OCc3ccc4ccccc4c3)[C@H]2c2ccc(OCCCOCc3ccccc3)cc2)CC1` (racemic) [X, 1-{2-[(3RS,4RS,5SR)-4-[4-(3-benzyloxy-propoxy)-phenyl]-3-(naphthalen-2-ylmethoxy)-piperidin-5-yloxy]-ethyl}-4-methyl-piperazine], under setting [1], the IC50 worked out at 3 nM. Still for that read-out and setting: as for `Fc1ccc([C@@H]2CCNC[C@H]2OCc2cc(OCc3ccccc3)c3ccccc3c2)cc1` [SS, (3S,4S)3-(4-Benzyloxy-naphthalen-2-ylmethoxy)-4-(4-fluoro-phenyl)-piperidne], the figure is 132000 nM; as for `c1ccc(COCCCOc2ccc([C@H]3[C@H](COCCN4CCOCC4)CNC[C@@H]3OCc3ccc4ccccc4c3)cc2)cc1` (relative stereo) [BB], 3 nM. The same measure, in the same setting: for `O=C(OCCOc1ccc([C@H]2CCNC[C@@H]2OCc2ccc3ccccc3c2)cc1)c1ccccc1Cl` (relative stereo) [B, (3RS,4RS)-2-[4-(3-napthalen-2-ylmethoxy-piperidin-4-yl)-phenoxy]-ethyl 2-chloro-benzoate hydrochloride] the value was 26 nM; for `OCCOCc1ccc2ccc(CO[C@H]3CNCC[C@@H]3c3ccc(OCCCOCc4ccccc4)cc3)cc2c1` (racemic) [PP, 2-(7-{(3RS,4RS)-4-[4-(3-benzyloxy-propoxy)-phenyl]-piperidin-3-yloxymethyl}-naphthalen-2-ylmethoxy)-ethanol], 2 nM. With `c1ccc(COCCCOc2ccc([C@H]3CCNC[C@@H]3OCc3ccc4ccccc4c3)cc2)cc1` (racemic) [M, (3RS,4RS)-4-[4-(3-benzyloxy-propoxy)-phenyl]-3-(naphthalen-2-ylmethoxy)-piperidine], the IC50 came out at 8 nM. As for `COC[C@@H]1CNC[C@H](OCc2ccc3ccccc3c2)[C@H]1c1ccc(COCc2ccccc2)cc1` (racemic) [J, (3SR,4RS,5RS)-4-(4-benzyloxymethyl-phenyl)-3-methoxymethyl-5-(naphthalen-2-ylmethoxy)-piperidine], under setting [1], the IC50 came out at 17 nM. Same read-out and setting: for `OCC(O)COc1ccc2ccc(CO[C@H]3CNCC[C@@H]3c3ccc(OCCCOCc4ccccc4)cc3)cc2c1` (mixture of isomers) [O, a mixture of (RS)- and (SR)-3-[7-[(3RS,4RS)-4-[4-(3-benzyloxy-propoxy)-phenyl]-piperidin-3-yloxymethyl]-naphthalen-2-yloxy]-propane-1,2-diol] the value was 17 nM; for `CN1CCN(CCCNC(=O)OC[C@@H]2CNC[C@H](OCc3ccc4ccccc4c3)[C@H]2c2ccc(OCCCOCc3ccccc3)cc2)CC1` (relative stereo) [DD], 1 nM. Same read-out and setting: for `COc1ccccc1COCCCOc1ccc([C@H]2CCNC[C@@H]2OCc2ccc3c(c2)NCCC3)cc1` (racemic) [YY, (3RS,4RS)-4-[4-[3-(2-methoxy-benzyloxy)-propoxy]-phenyl]-3-(1,2,3,4-tetrahydro-quinolin-7-ylmethoxy)-piperidine] the value was 0.5 nM; for `COc1ccccc1OCCCOc1ccc([C@H]2CCNC[C@@H]2OCc2cc(OC)c3ccccc3c2OC)cc1` (relative stereo) [LL], 1 nM. Same read-out and setting: for `COc1cc(CO[C@H]2CNC[C@@H](O)[C@@H]2c2ccc(OCCCOCc3ccccc3)cc2)c(OC)c2ccccc12` (racemic) [S, (3RS,4SR,5SR)-4-[4-(3-benzyloxy-propoxy)-phenyl]-3-(1,4-dimethoxy-naphthalen-2-ylmethoxy)-piperidin-5-ol] the value was 2 nM.

As for `c1ccc(-c2noc(COc3ccc([C@H]4CCNC[C@@H]4OCc4ccc5ccccc5c4)cc3)n2)cc1` (racemic) [E, (3RS,4RS)-3-(naphthalen-2-ylmethoxy)-4-[4-(3-phenyl-[1,2,4]oxadiazol-5-ylmethoxy)-phenyl]-piperidine trifluoroacetate], the IC50 worked out at 41 nM. As to `Oc1cc(CO[C@H]2CNCC[C@@H]2c2ccc(CCSc3nc4ccccc4s3)cc2)cc2ccccc12` (racemic) [H, (3RS,4RS)-3-[4-[4-[2-(benzothiazol-2-ylsulphanyl)-ethyl]-phenyl]-piperidin-3-yloxymethyl]-naphthalen-1-ol], the IC50 under setting [1] turned out to be 73 nM.

As for `c1ccc(SCCCc2ccc([C@H]3CCNC[C@@H]3OCc3ccc4ccccc4c3)cc2)cc1` (racemic) [G, (3RS,4RS)-3-(naphthalen-2-ylmethoxy)-4-[4-(3-phenylsulphanyl-propyl)-phenyl]-piperidine], the IC50 under setting [1] was determined as 33 nM. On the same count and under the same terms, for `COc1ccccc1COCCCOc1ccc([C@H]2CCNC[C@@H]2OCc2cc(OC)c3ccccc3c2OC)cn1` (relative stereo) [TT] the value was 0.5 nM; for `COc1ccccc1COCCCOc1ccc([C@H]2CCNC[C@@H]2OCc2ccc3cccnc3c2)cc1` (racemic) [OO, (3RS,4RS)-4-[4-[3-(2-methoxy-benzyloxy)-propoxy]-phenyl]-3-(quinolin-7-ylmethoxy)-piperidine], 6 nM; for `OCC(O)COCCOc1ccc2ccc(CO[C@H]3CNCC[C@@H]3c3ccc(OCCCOCc4ccccc4)cc3)cc2c1` (mixture of isomers) [P, a mixture of (RS)- and (SR)-3-[2-[7-[(3RS,4RS)-4-[4-(3-benzyloxy-propoxy)-phenyl]-piperidin-3-yloxymethyl]-naphthalen-2-yloxy]-ethoxy]-propane-1,2-diol hydrochloride (1:1)], 6 nM. Same read-out and setting: for `c1ccc(COCCCOc2ccc([C@H]3CCNC[C@@H]3OCc3ccc4c(c3)OCCO4)cc2)cc1` (racemic) [D, (3RS,4RS)-4-[4-(3-benzyloxy-propoxy)-phenyl]-3-(2,3-dihydro-benzo[1,4]dioxin-6-ylmethoxy)-piperidine] the value was 40 nM; for `O=C(Cc1ccc2ccccc2c1)[C@H]1CNC[C@@H](COCCN2CCOCC2)[C@@H]1c1ccc(OCCCOCc2ccccc2)cc1` (racemic) [KK, 1-[(3RS,4SR,5SR)-4-[4-(3-benzyloxy-propoxy)-phenyl]-5-(2-morpholin-4-yl-ethoxymethyl)-piperidin-3-yl]-2-naphthalen-2-yl-ethanone], 12 nM.
